Measured values from article PMC3235152, “Heteromeric Anopheline Odorant Receptors Exhibit Distinct Channel Properties” (PLoS ONE, 2011).
pEC50: −log10 of the molar value.

What was measured:
AgOrco = molecular target: T1, AgOrco (Anopheles gambiae, UniProt Q7QCC7); test: Ca++ imaging concentration-response in HEK cells; assay type: cell-based
T1 construct: gene Orco; Orco homomer, stoichiometry unknown
T1 sequence (Q7QCC7 1-478): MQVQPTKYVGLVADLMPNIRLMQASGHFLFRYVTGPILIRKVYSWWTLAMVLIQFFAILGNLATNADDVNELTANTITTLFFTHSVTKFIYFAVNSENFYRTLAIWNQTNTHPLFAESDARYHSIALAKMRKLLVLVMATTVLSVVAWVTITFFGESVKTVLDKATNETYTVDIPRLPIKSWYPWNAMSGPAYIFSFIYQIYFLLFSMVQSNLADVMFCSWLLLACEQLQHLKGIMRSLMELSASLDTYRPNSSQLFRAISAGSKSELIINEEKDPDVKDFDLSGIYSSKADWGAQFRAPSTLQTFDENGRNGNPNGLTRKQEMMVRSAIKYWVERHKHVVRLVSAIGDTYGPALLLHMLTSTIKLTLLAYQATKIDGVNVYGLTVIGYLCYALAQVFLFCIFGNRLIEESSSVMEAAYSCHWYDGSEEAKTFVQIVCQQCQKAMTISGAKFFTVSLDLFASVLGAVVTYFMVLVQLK

AgOrco + AgOr65 = system: T2, AgOrco + AgOr65; test: Ca++ imaging concentration-response in HEK cells; assay type: cell-based, Anopheles gambiae; conditions: Orco agonist; AgOrco homomers may coexist
T2 construct: gene Orco; heteromer of unknown stoichiometry; VUAA1 acts on Orco, odorant on Or65, ruthenium red at the pore

AgOrco + AgOr8 = molecular target: T3, AgOrco + AgOr8 (Anopheles gambiae, UniProt Q7PUT5+Q7QCC7); test: Ca++ imaging concentration-response in HEK cells; assay type: cell-based
T3 construct: gene Orco; heteromer of unknown stoichiometry; VUAA1 acts on Orco, odorant on Or8, ruthenium red at the pore
T3 sequence (Q7QCC7 1-478): T1 sequence (Q7QCC7 1-478)
T3 sequence (Q7PUT5 1-399): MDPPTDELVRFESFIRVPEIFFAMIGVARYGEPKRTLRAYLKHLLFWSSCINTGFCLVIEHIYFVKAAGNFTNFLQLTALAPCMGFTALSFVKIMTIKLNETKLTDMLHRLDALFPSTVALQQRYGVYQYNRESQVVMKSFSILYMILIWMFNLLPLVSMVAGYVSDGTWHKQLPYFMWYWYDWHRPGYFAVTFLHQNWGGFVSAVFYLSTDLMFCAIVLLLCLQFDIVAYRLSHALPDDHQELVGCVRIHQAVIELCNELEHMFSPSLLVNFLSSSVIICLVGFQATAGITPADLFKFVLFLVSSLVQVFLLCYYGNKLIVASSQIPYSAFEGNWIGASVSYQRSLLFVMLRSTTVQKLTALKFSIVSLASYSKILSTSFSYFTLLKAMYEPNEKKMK

AgOrco + AgOr10 [1] = molecular target: T4, AgOrco + AgOr10 (Anopheles gambiae, UniProt B5U0U7+Q7QCC7); test: Ca++ imaging concentration-response in HEK cells; assay type: cell-based
T4 construct: gene Orco; heteromer of unknown stoichiometry; VUAA1 acts on Orco, odorant on Or10, ruthenium red at the pore
T4 sequence (Q7QCC7 1-478): T1 sequence (Q7QCC7 1-478)
T4 sequence (B5U0U7 1-375): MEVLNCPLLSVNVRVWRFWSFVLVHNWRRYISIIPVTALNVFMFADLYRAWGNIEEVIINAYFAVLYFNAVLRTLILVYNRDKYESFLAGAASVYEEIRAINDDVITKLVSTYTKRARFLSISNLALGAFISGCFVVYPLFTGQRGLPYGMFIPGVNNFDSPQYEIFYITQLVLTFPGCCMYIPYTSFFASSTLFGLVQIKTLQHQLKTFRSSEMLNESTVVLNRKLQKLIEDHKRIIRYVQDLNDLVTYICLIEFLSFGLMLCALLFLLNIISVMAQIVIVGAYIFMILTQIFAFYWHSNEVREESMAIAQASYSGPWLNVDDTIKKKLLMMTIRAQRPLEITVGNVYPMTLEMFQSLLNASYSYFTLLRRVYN

AgOrco + AgOr28 = system: T5, AgOrco + AgOr28; test: Ca++ imaging concentration-response in HEK cells; assay type: cell-based, Anopheles gambiae; conditions: Orco agonist; AgOrco homomers may coexist
T5 construct: gene Orco; heteromer of unknown stoichiometry; VUAA1 acts on Orco, odorant on Or28, ruthenium red at the pore

AgOrco + AgOr10 [2] = molecular target: T4, AgOrco + AgOr10; test: whole-cell patch clamp, block of agonist-induced current; assay type: cell-based; conditions: 100 µM benzaldehyde as agonist; -60 mV; pH 7.35; 20–22°C; pore blocker, noncompetitive with VUAA1

Compound | pEC50 (AgOrco) | EC50 (AgOrco + AgOr65) | pEC50 (AgOrco + AgOr8) | pEC50 (AgOrco + AgOr10 [1]) | EC50 (AgOrco + AgOr28) | % current reduction at 100 μM (AgOrco + AgOr10 [2])
CCc1ccc(NC(=O)CSc2nnc(-c3cccnc3)n2CC)cc1 [VUAA1, N-(4-ethylphenyl)-2-((4-ethyl-5-(3-pyridinyl)-4H-1,2,4-triazol-3-yl)thio)acetamide] | 4.31 | −4.42±0.02 logM | 4.88 | 4.91 | −4.47±0.02 logM | 
N.N.N.N.N.N.N.N.N.N.N.N.N.N.[Cl-].[Cl-].[Cl-].[Cl-].[Cl-].[Cl-].[O-2].[O-2].[Ru+3].[Ru+3].[Ru+4] [ruthenium red] |  |  |  |  |  | 78.5±1.4%
